The source made the active and inactive calls.
Key:
Estrogen receptor = target: T1, Estrogen receptor (Homo sapiens, UniProt P03372); test: ERα coactivator recruitment enhancers – biochemical, TR-FRET, ERα LBD, dose response (AID 737)
T1 sequence (P03372 whole entry): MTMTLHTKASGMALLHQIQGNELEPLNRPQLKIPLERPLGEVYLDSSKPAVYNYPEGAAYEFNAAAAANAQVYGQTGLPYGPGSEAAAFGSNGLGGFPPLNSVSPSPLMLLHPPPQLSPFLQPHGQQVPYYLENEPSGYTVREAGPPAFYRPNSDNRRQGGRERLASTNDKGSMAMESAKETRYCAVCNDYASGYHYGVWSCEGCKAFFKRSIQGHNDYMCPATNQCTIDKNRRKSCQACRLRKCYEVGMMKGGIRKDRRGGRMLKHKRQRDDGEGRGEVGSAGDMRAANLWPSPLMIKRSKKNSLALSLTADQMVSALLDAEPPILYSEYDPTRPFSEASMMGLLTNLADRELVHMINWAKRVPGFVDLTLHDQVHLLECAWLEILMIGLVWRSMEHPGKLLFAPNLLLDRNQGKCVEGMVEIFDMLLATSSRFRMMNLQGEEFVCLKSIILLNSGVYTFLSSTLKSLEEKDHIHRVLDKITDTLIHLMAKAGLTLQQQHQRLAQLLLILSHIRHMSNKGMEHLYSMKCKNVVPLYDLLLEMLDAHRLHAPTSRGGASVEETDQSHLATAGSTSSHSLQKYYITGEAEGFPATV

[1] = target: T2, Photoreceptor-specific nuclear receptor (Homo sapiens, UniProt Q9Y5X4); type: functional, cell-based;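 further: CHO-S cells with Gal4-NCOR and VP16-NR2E3 two-hybrid luciferase reporter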
[2] = target: Disintegrin and metalloproteinase domain-containing protein 17 (Homo sapiens, UniProt P78536); test: exosite inhibitors of ADAM17, dose response, biochemical (AID 743260)
[3] = inhibition of ADAM10 peptide cleavage – biochemical, FRET peptide substrate, recombinant human ADAM10, selectivity assay for ADAM17 exosite inhibitor project, dose response (AID 743259);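 further: ADAM10 enzyme cleaving a FRET peptide substrate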
[4] = target: Mitogen-activated protein kinase 10 (Homo sapiens, UniProt P53779); test: Dose response biochemical screening assay for inhibitors of c-Jun N-Terminal Kinase 3 (JNK3). [Related pubchem assays: 746 ]
[5] = M. tuberculosis growth inhibition, HTS (AID 449762); type: functional
[6] = microbe, parasite or virus in culture; type: functional; details: Mycobacterium tuberculosis
Beta-galactosidase = Beta-galactosidase (Escherichia coli, UniProt Q8VNN2); test: Dose response counterscreen for EBI2 assay utilizing the enzyme, b-galactosidase.; type: functional
NADPH oxidase 1 [7] = target: T3, NADPH oxidase 1 (Homo sapiens, UniProt Q9Y5S8); test: Late-stage luminescence-based cell-based dose response assay to identify inhibitors of NADPH oxidase 1 (NOX1): Synthesized analogs 2.; type: functional
NADPH oxidase 1 [8] = target: T3, NADPH oxidase 1; test: Late-stage luminescence-based cell-based dose response assay to identify inhibitors of NADPH oxidase 1 (NOX1): Synthesized analogs 3.; type: functional
[9] = Luminescent dose response cell-based high throughput screening assay for inhibitors of the Janus kinase 2 mutant JAK2V617F. [Related pubchem assays: 1446 (Primary screen.), 1521 (Confirmation assay.), 1486 (Counter screen.)]; type: functional
[10] = target: 5-hydroxytryptamine receptor 1A (Homo sapiens, UniProt P08908); type: functional
[11] = target: Peroxisome proliferator-activated receptor gamma/Nuclear receptor corepressor 2 (Homo sapiens, UniProt P37231+Q9Y618); test: Counterscreen for NR2E3 inverse agonists: TR-FRET-based biochemical high throughput dose response assay to identify inverse agonists of the interaction between peroxisome proliferator-activated receptor gamma (PPARg) and nuclear receptor co-repressor 2 (NCOR2).; type: functional
[12] = target: T2, Photoreceptor-specific nuclear receptor; test: ligands suppressing NR2E3 nuclear receptor activity – biochemical, TR-FRET, dose response (AID 463256); type: functional
Protein Tat = Protein Tat (Human immunodeficiency virus type 1 group M subtype B (isolate HXB2)(HIV-1), UniProt P04608); type: functional;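 further: tat binding to TAR RNA read out by fluorescence polarization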
[13] = target: Sphingosine 1-phosphate receptor 2 (Homo sapiens, UniProt O95136); test: Dose Response Cell Based Assay for Agonists of the S1P2 Receptor of Purchased Analogues. [Related pubchem assays: 729, 843, 854, 736 ]; type: functional
Chain of Sphingosine 1-phosphate receptor 2 (O95136 whole entry): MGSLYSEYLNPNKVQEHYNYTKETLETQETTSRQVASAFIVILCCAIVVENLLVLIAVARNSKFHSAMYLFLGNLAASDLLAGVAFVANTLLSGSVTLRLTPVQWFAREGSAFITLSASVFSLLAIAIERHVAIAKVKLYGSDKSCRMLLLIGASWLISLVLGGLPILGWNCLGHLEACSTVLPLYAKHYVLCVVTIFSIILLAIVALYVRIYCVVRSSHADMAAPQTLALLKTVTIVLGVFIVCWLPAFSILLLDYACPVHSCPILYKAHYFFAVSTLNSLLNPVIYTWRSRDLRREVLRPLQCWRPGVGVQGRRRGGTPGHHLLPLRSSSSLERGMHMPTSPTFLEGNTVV

T2 sequence (Q9Y5X4 whole entry, the tested form may be a part): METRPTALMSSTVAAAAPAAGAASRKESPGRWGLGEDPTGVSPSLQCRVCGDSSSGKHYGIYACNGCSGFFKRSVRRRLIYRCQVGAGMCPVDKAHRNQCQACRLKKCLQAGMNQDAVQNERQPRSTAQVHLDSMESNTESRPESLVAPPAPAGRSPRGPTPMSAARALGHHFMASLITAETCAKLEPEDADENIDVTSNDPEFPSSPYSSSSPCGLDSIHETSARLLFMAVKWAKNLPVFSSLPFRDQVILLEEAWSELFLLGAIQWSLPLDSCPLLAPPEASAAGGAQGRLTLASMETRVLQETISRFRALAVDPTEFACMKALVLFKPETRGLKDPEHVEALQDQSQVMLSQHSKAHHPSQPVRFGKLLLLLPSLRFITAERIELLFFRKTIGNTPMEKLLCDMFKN
T3 sequence (Q9Y5S8 whole entry): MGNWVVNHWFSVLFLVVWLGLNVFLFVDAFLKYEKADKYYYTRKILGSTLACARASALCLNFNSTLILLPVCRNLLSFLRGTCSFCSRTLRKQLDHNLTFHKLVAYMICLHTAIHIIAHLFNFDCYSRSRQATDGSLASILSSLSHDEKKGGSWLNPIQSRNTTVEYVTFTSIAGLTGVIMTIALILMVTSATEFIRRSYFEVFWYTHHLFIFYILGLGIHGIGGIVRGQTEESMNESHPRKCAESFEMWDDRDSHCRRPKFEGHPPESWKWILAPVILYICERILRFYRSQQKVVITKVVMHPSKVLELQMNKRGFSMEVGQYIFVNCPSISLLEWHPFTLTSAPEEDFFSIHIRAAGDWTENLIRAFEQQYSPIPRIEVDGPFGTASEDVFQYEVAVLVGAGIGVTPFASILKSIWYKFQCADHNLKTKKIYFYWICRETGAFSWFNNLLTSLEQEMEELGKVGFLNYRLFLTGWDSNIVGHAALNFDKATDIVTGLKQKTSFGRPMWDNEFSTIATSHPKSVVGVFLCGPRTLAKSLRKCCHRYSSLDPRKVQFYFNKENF
Chain of Protein Tat (P04608 whole entry): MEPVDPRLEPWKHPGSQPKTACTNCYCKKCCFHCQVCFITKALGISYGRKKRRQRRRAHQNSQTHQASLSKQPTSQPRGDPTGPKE
Chain of Beta-galactosidase (Q8VNN2 whole entry): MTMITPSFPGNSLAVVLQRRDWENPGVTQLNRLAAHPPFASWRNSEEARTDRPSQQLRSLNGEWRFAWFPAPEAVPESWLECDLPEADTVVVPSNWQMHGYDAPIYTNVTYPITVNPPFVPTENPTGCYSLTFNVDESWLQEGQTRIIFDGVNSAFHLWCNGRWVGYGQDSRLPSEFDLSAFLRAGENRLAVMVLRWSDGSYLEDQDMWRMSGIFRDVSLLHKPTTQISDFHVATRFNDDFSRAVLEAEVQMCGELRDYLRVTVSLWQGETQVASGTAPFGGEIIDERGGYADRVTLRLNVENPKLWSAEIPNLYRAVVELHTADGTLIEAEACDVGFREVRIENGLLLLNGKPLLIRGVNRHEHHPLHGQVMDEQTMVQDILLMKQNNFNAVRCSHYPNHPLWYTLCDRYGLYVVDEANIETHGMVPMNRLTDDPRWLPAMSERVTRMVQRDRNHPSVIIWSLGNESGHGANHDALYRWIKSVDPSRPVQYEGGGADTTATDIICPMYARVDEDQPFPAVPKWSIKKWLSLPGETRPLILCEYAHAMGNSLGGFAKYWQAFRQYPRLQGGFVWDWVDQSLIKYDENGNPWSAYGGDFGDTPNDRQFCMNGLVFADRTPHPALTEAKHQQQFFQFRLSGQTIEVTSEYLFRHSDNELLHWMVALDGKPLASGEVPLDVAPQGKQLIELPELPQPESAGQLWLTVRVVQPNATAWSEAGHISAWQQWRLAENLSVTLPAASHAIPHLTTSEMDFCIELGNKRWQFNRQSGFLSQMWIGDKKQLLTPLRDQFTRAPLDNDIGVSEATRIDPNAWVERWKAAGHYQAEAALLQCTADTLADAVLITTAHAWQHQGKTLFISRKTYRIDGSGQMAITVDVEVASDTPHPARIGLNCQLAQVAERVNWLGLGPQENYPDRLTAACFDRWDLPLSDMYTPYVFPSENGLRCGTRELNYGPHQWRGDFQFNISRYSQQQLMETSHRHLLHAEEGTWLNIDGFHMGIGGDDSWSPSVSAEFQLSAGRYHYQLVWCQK
Chain of Mitogen-activated protein kinase 10 (P53779 whole entry): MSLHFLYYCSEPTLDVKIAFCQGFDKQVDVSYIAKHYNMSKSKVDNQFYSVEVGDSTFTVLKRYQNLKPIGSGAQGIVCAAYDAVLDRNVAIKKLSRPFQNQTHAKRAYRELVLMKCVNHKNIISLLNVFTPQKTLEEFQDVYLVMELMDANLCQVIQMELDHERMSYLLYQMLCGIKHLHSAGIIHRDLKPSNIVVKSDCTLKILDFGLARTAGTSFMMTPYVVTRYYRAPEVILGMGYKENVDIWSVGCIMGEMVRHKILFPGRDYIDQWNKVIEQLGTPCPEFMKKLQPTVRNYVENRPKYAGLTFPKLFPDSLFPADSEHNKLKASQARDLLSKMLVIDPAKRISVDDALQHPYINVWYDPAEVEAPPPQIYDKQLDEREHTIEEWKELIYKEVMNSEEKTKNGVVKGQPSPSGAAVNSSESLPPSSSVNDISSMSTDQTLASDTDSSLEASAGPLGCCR
Chain of 5-hydroxytryptamine receptor 1A (P08908 whole entry): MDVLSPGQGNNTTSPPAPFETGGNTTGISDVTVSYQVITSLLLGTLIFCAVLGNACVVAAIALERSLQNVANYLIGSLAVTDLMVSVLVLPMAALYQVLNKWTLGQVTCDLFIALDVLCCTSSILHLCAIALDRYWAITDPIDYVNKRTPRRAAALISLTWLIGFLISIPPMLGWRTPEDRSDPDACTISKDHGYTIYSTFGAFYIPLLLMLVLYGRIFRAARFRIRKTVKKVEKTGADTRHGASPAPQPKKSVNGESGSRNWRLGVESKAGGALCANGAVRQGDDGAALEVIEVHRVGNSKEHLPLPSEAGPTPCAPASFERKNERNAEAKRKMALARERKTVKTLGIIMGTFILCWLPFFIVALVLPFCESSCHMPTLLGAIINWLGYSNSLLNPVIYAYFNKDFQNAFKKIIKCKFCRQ
Chain of Disintegrin and metalloproteinase domain-containing protein 17 (P78536 whole entry, the tested form may be a part): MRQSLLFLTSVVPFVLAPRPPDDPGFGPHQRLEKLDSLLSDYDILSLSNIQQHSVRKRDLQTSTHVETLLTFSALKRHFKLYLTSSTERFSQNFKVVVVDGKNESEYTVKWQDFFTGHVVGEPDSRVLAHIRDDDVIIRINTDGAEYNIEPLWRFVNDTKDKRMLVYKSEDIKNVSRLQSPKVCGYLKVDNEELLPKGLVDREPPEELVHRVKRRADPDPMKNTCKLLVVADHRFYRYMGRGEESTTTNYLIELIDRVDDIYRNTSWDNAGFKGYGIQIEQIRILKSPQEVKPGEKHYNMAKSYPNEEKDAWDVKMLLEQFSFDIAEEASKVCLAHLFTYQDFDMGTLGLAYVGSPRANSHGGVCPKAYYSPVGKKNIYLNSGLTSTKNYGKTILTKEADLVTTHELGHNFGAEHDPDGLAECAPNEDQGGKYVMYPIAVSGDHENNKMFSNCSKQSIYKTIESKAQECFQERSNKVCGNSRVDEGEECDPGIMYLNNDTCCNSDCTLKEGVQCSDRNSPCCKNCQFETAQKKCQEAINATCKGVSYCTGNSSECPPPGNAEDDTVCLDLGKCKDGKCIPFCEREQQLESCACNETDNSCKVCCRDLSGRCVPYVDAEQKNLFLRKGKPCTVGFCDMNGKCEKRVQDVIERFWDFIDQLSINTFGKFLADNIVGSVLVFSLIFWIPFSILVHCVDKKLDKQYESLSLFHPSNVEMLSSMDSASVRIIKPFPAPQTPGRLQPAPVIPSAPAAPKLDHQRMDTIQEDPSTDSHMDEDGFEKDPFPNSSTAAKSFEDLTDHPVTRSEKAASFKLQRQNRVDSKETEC

Cc1ccc(NC(=O)CSc2nnnn2-c2ccc3c(c2)OCO3)cc1C
EC50 (Estrogen receptor): 8.47 µM (active) | IC50 [1]: 0.581 µM (active)

C=C(C)COc1ccc(-c2nc(N)ncc2-c2ccc(OC)cc2)c(O)c1
IC50 [2]: > 69.5 µM (inactive) | IC50 [3]: > 69.5 µM (inactive) | IC50 [4]: 29.4 µM (not active)

O=C(c1cc2cc(Cl)ccc2[nH]1)N1CCN(Cc2ccc3c(c2)OCO3)CC1
IC50 [5]: > 100 µM (active) | CC50 [6]: > 40 µM (active) | IC50 (Beta-galactosidase): > 80 µM (inactive)

CN1c2ccc(Br)cc2Sc2cc(Br)ccc21
IC50 (NADPH oxidase 1 [7]): > 50 µM (not active)

CN1c2ccccc2Sc2cc(C(=O)c3ccccc3)ccc21
IC50 (NADPH oxidase 1 [8]): > 20 µM (not active)

Cc1nn2c(NCc3ccccn3)c3c(nc2c1-c1ccccc1)CCC3
IC50 [9]: 1.03 µM (active)

CCOC(=O)C1CCN(C(=O)Cc2c(C(=O)O)n(C)c3ccccc23)CC1
EC50 [10]: > 50 µM (not active)

Cc1cc(C)nc(NS(=O)(=O)c2ccc(NC(=O)CSc3nc[nH]n3)cc2)n1
IC50 [11]: > 39.8 µM (not active) | IC50 [12]: > 39.8 µM (not active)

COc1ccccc1N1C(=O)CC(Nc2ccc(N3CCOCC3)cc2)C1=O (stereo unspecified)
IC50 (Protein Tat): 20.1 µM (inconclusive)

Cc1cc(C(=O)COC(=O)C(O)c2ccccc2)c(C)n1Cc1ccccc1 (stereo unspecified)
EC50 [13]: > 30 µM (not active)

From ChEMBL document CHEMBL1201862, “PubChem BioAssay data set” (2004)
